Experimental data as given in patent US12630532B2, “Indole-substituted quinolines and their combination with Plk1 inhibitors for the treatment of cancer” (UNIVERSITY OF KENTUCKY RESEARCH FOUNDATION, priority 2021, dated 2026).

How the values were obtained:
[1] = cited from earlier work
[2] = system: LS174T colon cancer cell xenografts; test: In vivo antineoplastic activity and gross toxicity in LS174T xenografts
Experimental: Mouse studies were carried out with approval from the Institutional Animal Care and Use Committee of the University of Kentucky (2020-3531). All methods were performed in accordance with the relevant guidelines and regulations according to protocols. […] After tumors were established, mice were randomized according to tumor volume and divided into groups for treatments (five mice in each group, two tumors on each mouse).
The in vivo evaluation of ISQ-1 and BI2536 followed the approved protocol. After tumors were established, ISQ-1 was formulated in a mixture of Tween-80 (5%), DMSO (10%), PEG400 (25%) and PBS (60%) and was intraperitoneally administered to the ISQ-1 group at a daily dose of 20 mg/kg mouse body weight. The first day of treatment was set as day 0. At days 0, 4, and 7, BI2536 dissolved in 0.1 N HCl and then diluted 5-fold using 0.9% NaCl was given via gavage to the B12536 group. Mice in combination therapy group were treated with both ISQ-1 and BI2536 following aforementioned dosing schedules. At day 11 treatment was ceased and mice were sacrificed. Tumors and mouse weights were measured, and tumor volumes were calculated as Length×width^2/2.
Major biological assays were performed at least twice. Data were shown as mean SEM. For the mice study, five mice with two tumors on the lower flanks of each mouse were used in each treatment group. Sizes of the two tumors from each mouse were averaged, standardized by the tumor size on day 0, and log-transformed. ANOVA with Tukey's HSD test was used to compare the tumor size at the end of the study (day 11) between the combination therapy of ISQ-1 and B12536 and each single compound as well as the control. The equal variance assumption of ANOVA was assessed by Bartlett's test. All statistical studies were overseen in collaboration with a statistician in the University of Kentucky's Markey Cancer Center.

[3] = system: Wnt signaling target genes c-Myc and axin2; test: Western blotting of Wnt signaling target genes in LS174T cells; format: cell-based; conditions: 24 hours
Experimental: (§1) Western blotting were performed according to previous procedures (25). Cells were split into 12-well plates. After 24 hours, compounds at indicated final concentrations were added to each well for another 24 hours unless otherwise noted. DMSO was used as a control. Cells were lysed in the appropriate volume of lysis buffer: 50 mM HEPES, 100 mM NaCl, 2 mM EDTA, 1% (v/v) glycerol, 50 mM NaF, 1 mM Na3VO4, 1% (v/v) Triton X-100, with protease inhibitors. Cell lysates were centrifuged, and supernatants were mixed with 6× protein loading buffer and boiled. The obtained samples were analyzed with standard western blotting methods with indicated antibodies.

LS174T cells = test: Cell proliferation inhibition assay (5 days, cell counting); format: cell-based
Experimental: Cell proliferation inhibition assays were done following a previous report (32). Cancer cells were seeded into 24-well plates at a density of 20,000 cells per well in 1 mL of culture medium and were cultured overnight at 37° C. Compounds and the vehicle control (DMSO) were added to the cells. After 5 days, the medium was removed, and 100 μL of trypsin was added. The cells were resuspended in phosphate-buffered saline (PBS) and were counted by Vi-CELL XR 2.03 (Beckman Coulter, Inc. USA). The ratio R of the number of viable cells in the compound treatment group to the number of viable cells in DMSO treatment group was taken as relative growth, and the percentage growth inhibition was calculated as (1−R)*100.

Plk1 = test: Western blotting of cell signaling pathways in LS174T cells; format: cell-based; conditions: LS174T colon cancer cells, 24 hours
Experimental: as §1

[4] = system: mitochondrial ETC (electron transport chain); test: Seahorse assay (OCR) in Beas-2B cells; format: cell-based
Experimental: Seahorse assays were carried out following a published procedure (25). Briefly, 2.5×10^4 cells in 80 μL of medium were seeded in XF96 Cell Culture microplate for all experiments. On the next day, cell culture media were replaced with Seahorse XF modified media. Cells were treated with 1 μM of oligomycin A, 1.0 μM FCCP and mixture of 1.0 μM of rotenone and 1.0 μM of antimycin A in standard mitochondrial stress test conditions. To determine the uncoupler effects, FCCP was replaced with an equal volume of DMSO, or a compound to be tested in DMSO solution.

[5] = system: mitochondrial ETC complex I; test: Mitochondrial ETC complex activity measurements using PMP-permeabilized cells; format: cell-based; conditions: pyruvate substrate
Experimental: Mitochondrial ETC complex activity measurements were taken using the Agilent Seahorse Assay with XF PMP (Agilent, Santa Clara, CA) following manufacturer's instructions. Adherent monolayer cells were gently washed with mitochondrial assay solution (MAS) (220 mM mannitol, 70 mM sucrose, 10 mM KH2PO4, 5 mM MgCl2, 2 mM HEPES, 1 mM EGTA, and 0.2% (w/v) fatty acid free BSA) and cell growth media was replaced with MAS supplemented with 4 mM adenosine diphosphate (ADP), 10 mM pyruvate, and 1 nM PMP. Following calibration, the assay was immediately performed by measuring baseline with two cycles of 0.5 min mixing, 0.5 min waiting, and 2 min measuring. After baseline measurements, sequential injections of DMSO, compounds of interest or 2 μM rotenone, 10 mM succinate, 2 μM antimycin A, and a combination of 10 mM ascorbate and 100 μM TMPD were also performed with each followed by two cycles of 0.5 min mixing, 0.5 min waiting, and 2 min measuring. Data were then normalized to cell counts using the Biotek Cytation 1 (BioTek Instruments, Winooski, VT, USA).

AMPK = AMPK activation (western blotting, pAMPK/pACC) in LS174T cells; format: cell-based
Experimental: as §1

Row | Structure (SMILES) | antitumor activity in Phase II clinical trials ([1]; Phase II) | safety in phase I clinical trials ([1]; phase I) | gross toxicities on the basis of mouse weight measurements ([2]; mouse, in vivo) | tumor growth of LS174T xenografts ([2]; nude mice, ISQ-1 20 mg/kg daily i.p., BI2536 30 mg/kg twice a week by gavage, day 11) | effect on Wnt signaling target genes c-Myc and axin2 [3] | percentage inhibition of LS174T cell proliferation at 500 nM, compared among ISQs (FIG. 2B) (LS174T cells; 500 nM) | inhibition at 0.062 µM (LS174T cells; Homo sapiens, LS174T, 120 h, 62 nM, 5 days) [%] | inhibition at 0.125 µM (LS174T cells; Homo sapiens, LS174T, 120 h, 125 nM, 5 days) [%] | inhibition at 0.25 µM (LS174T cells; Homo sapiens, LS174T, 120 h, 250 nM, 5 days) [%] | inhibition at 0.5 µM (LS174T cells; Homo sapiens, LS174T, 120 h, 500 nM, 5 days) [%] | IC50 (LS174T cells; Homo sapiens, dose response studies, LS174T, read-out: IC50 values in cell proliferation assays) [nM] | Plk1 expression upon drug treatment (Plk1) | ETC complex V inhibition (oligomycin replaced with compound) [4] | uncoupler effect (FCCP replaced with compound) [4] | ETC complex I inhibition (pyruvate/NADH-linked respiration) [5] | AMPK activation (AMPK)
1 | CC[C@@H]1C(=O)N(C)c2cnc(Nc3ccc(C(=O)NC4CCN(C)CC4)cc3OC)nc2N1C1CCCC1 [BI2536, reference compound] | only limited antitumor activity | safe | No gross toxicities | inhibited tumor growth but did not induce tumor regression | – | – | – | – | – | – | – | – | – | – | – | –
2 | Cn1cc(-c2cc3ccc(N4CCC(C#N)CC4)cc3nc2N)c2ccccc21 [ISQ-7, 1-(2-Amino-3-(1-methyl-1H-indol-3-yl)quinolin-7-yl)piperidine-4-carbonitrile] | – | – | – | – | strongly inhibited | comparable to the N,N-dimethylamino group in ISQ-1 | 19 ± 5.5 | 89 ± 0.2 | 98 ± 0.6 | 97 ± 0.7 | ~100 | induced | did not inhibit ETC complex V | no uncouplers | inhibited complex I | activated AMPK
